Laboratory results taken from patent EP3045469A1, “POLYMYXIN DERIVATIVE AND USES THEREOF” (priority 2015, dated 2016).
“And” between values parts separate entries of the source, which are not always exact repeats. Equal entries are not always repeated. “Also recorded” adds a separate entry of the source. Where two headings read alike, the source gives them in different places. Where a SMILES comes first, the peptide text is derived from it. Bridges are numbered along the chain shown (N, C = ends). [ ]: non-standard residue; d: D form. The star is where a group is joined. Octanoyl = CCCCCCCC(=O)*; Dab = NCC[C@H](N)C(=O)O; Abu = CC[C@H](N)C(=O)O

How the values were obtained:
E. coli JMI 109 = experiment: MIC assay (CLSI broth microdilution; checkerboard with rifampin); type: cell-based, Escherichia coli; conditions: polymyxin-nonsusceptible strain
Protocol: (§1) Synergy studies were performed by using polymyxin derivatives in combination with rifampin, a model compound for such antibacterial agents that the intact outer membrane of Gram-negative bacteria acts as a permeability barrier.

A. baumannii CMI 417 = experiment: as above; type: cell-based, Acinetobacter baumannii; conditions: polymyxin-nonsusceptible strain
Protocol: as §1

A. baumannii JMI 48125 = test system: A. baumannii JMI 48125
Protocol: as §1

K. pneumoniae JMI 27072 = test system: K. pneumoniae JMI 27072
Protocol: as §1

P. aeruginosa JMI 7445 = test system: P. aeruginosa JMI 7445
Protocol: as §1

E. coli JMI 3328 = test system: E. coli JMI 3328
Protocol: as §1

P. aeruginosa ATCC 27853 = test system: P. aeruginosa ATCC 27853
Protocol: as §1

K. pneumoniae ATCC 43816 = test system: K. pneumoniae ATCC 43816
Protocol: as §1

E. coli ATCC 25922 = test system: E. coli ATCC 25922
Protocol: as §1

A. baumannii ATCC 19606 = test system: A. baumannii ATCC 19606
Protocol: as §1

K. pneumoniae JMI 27068 = experiment: MIC assay (CLSI broth microdilution; checkerboard with rifampin); type: cell-based, Klebsiella pneumoniae; conditions: polymyxin-nonsusceptible strain
Protocol: as §1

[1] = 7-day intravenous toxicity (nephrotoxicity) study in cynomolgus monkeys; conditions: for kidney injury markers (S-BUN, S-Crea, U-NAG/Crea, U-GGT/Crea) / animals euthanized due to severe nephrotoxic effects: IV infusion TID, seven days; for animals euthanized due to severe nephrotoxic effects: 3 animals per group
Protocol: In vivo toxicity and toxicokinetic studies were performed by using cynomolgus monkeys. The laboratory that performed the animal studies is accredited by the Association for Assessment and Accreditation of Laboratory Animal Care (AAALAC), has an Animal Welfare Assurance issued by the Office of Laboratory Animal Welfare (OLAW), is registered with the United States Department of Agriculture (USDA), and has an Institutional Animal Care and Use Committee (IACUC) responsible for compliance with applicable laws and regulations concerning the humane care and use of laboratory animals.
Naive female cynomolgus monkeys were acclimatized to study room for 28 days during which each animal was implanted with a permanent indwelling femoral catheter to permit continuous intravenous infusions. The animals were allowed surgical recovery period of at least 2 weeks before initiating dosing.
Polymyxin B sulfate was from Sigma-Aldrich (catalogue number P0972, lot number BCBF8382V). On each day of use, appropriate quantities of NAB739, NAB815 or polymyxin B were weighed and dissolved in appropriate volumes of sterile saline to prepare a stock solution for each test article and positive control. A correction factor was used in the stock solution preparation to account for both the purity and sulfate content in each test article. Accordingly, the dose (such as 36 mg/kg/d) refers to the dose of the pure peptide as its free base form, not as its sulfate salt.
The doses were the following: polymyxin B 18 mg/kg/d (Group 1), polymyxin B 24 mg/kg/d (Group 2), NAB739 24 mg/kg/d (Group 3), NAB739 36 mg/kg/d (Group 4), NAB815 24 mg/kg/d (Group 5), NAB815 36 mg/kg/d (Group 6). Three animals were included in each study groups.
(§2) For seven days, the animals were dosed by intravenous (IV) infusion three times daily (TID) at a dose volume of 10 mL/kg for 1 hour (± 10 minutes), 8 ± 0.5 hours apart. The day of initial dose administration was designated study Day 1, with subsequent days consecutively numbered. Days prior to the initial dose administration were consecutively numbered with the final day of acclimation referenced as Day -1.
(§3) The following parameters were evaluated at designed intervals: clinical observations, body weights, clinical pathology (hematology, coagulation, serum chemistry, urinalysis including urine sediments and urine chemistry), toxi-cokinetics (plasma and urine) and anatomic pathology (kidney). In cases of animals sacrificed on an unscheduled basis, samples were taken on the day of the sacrifice.
On the day of necropsy, animals were sedated with ketamine, weighed, and anesthetized with an intravenous injection of a commercial pentobarbital and phenytoin solution, followed by exsanguinations.
At necropsy, gross observations and organ weights were recorded, and specific tissues were collected. Histopathology was conducted on sections of kidney stained with hematoxylin and eosin (H&E).
The figures also show Urine N-acetyl-β-D-glucosaminidase/urine creatinine ratio (U-NAG/Crea; Fig. 3) and Urine Gamma Glutamyltransferase/urine creatinine ratio (U-GGT/Crea; Fig. 4), both urine biomarkers for kidney injury, in those animals. S-Crea and U-Crea were measured by using an Olympus Analyzer (OA) and the modified Jaffe method, S-BUN by using OA and urease/L-glutamate dehydrogenase. U-NAG was measured by using OA/enzymatic, and U-GGT by using OA and glutamyl-carboxy-p-nitroanilide IFCC.
The presence of the following nephropathological parameters was recorded in each animal: tubular basophilia (regeneration), tubular degeneration/necrosis, infiltration (by mononuclear and/or mixed inflammatory cells), tubular dilatation, and tubular casts.

[2] = Toxicokinetics (plasma and urine levels by LC-MS/MS) in cynomolgus monkeys; conditions: for urinary recoveries (0-8 h urine collection) / urine concentrations (in 0-8 h urine collection): 36 mg/kg/d; for concentration in the urine: after infusion at 8 mg/kg, highest found either in the 0-4 h or 4-8 h sample, given for each animal; for concentration in the urine / 0-8 h recovery in urine: 8 mg/kg; for 0-8 h recovery in urine: after the infusion of 8 mg/kg, percentages given for each animal
Protocol: as §2, §3
Plasma and urine concentrations for toxicokinetic (TK) studies were determined by using liquid chromatograph interfaced with a mass spectrometer after precipitation of proteins. A sample (100 µL) was mixed with internal standard solution in water:formic acid (99:1 v/v; […]). Then, 600µL of 100:1 acetonitrile:formic acid was added. The plates were centrifuged at 3200 rpm for 5 minutes. Using a Tomtec Quadra96, a 450 µL aliquot was transferred to a new 96-well plate and dried under nitrogen at 40°C. Then, 200 µL of water:methanol:formic acid (85:15:1 1 v/v) was added and the plate sealed for LC-MS/MS injection. LC-MS system consisted of Waters Acquity liquid chromatograph interfaced with a Thermo Scientific TSQ Quantitative triple quadrupole MS with ionization in the positive ion mode. Each sample (20 µL) was injected onto a Waters Acquity BEH Shield RP18 column (2.1 x 50 mm; 1.7 µm) equilibrated at 50°C. Mobile Phase A was 85:15:1 v/v water:methanol:formic acid. Mobile Phase B was 50:50:1 v/v acetonitrile:methanol:formic acid.
Peak area ratios from the calibration standard responses were regressed using a (1/concentration^2) linear fit for polymyxin B using colistin as the internal standard. For NAB739 and NAB815, peak areas from the calibration standard responses were regressed using a (1/concentration^2) quadratic fit (without the use of an internal standard).
Toxicokinetic analysis was performed by using WinNonlin Phoenix version 6.3 software (Pharsight, Cary, NC). For plasma TK, noncompartmental IV infusion model was used.
The data is from the cynomolgus monkey studies described in the Example 3, where the peptides were administered as a 1-hour intravenous infusion thrice a day. The plasma and urine levels of the peptides were determined as in Example 3.

[3] = alone, Müller-Hinton II broth, 35°C, 20 hours
[4] = in combination with rifampin (0.25 µg/mL), duplicate checkerboard assays

Row | Structure (SMILES) | MIC (E. coli JMI 109; [3]) | MIC (E. coli JMI 109; [4]) | MIC (A. baumannii CMI 417; [3]) | MIC (A. baumannii CMI 417; [4]) | MIC (A. baumannii JMI 48125; [3]) | MIC (A. baumannii JMI 48125; [4]) | MIC (K. pneumoniae JMI 27072; [3]) | MIC (K. pneumoniae JMI 27072; [4]) | MIC (P. aeruginosa JMI 7445; [3]) | MIC (P. aeruginosa JMI 7445; [4]) | MIC (E. coli JMI 3328; [3]) | MIC (P. aeruginosa ATCC 27853; [4]) | MIC (K. pneumoniae ATCC 43816; [3]) | MIC (E. coli ATCC 25922; [3]) | MIC (A. baumannii ATCC 19606; [3]) | MIC (A. baumannii ATCC 19606; [4]) | MIC (K. pneumoniae JMI 27068; [3]) | MIC (K. pneumoniae JMI 27068; [4]) | kidney injury markers (S-BUN, S-Crea, U-NAG/Crea, U-GGT/Crea) ([1]; 24 mg/kg/d) | animals euthanized due to severe nephrotoxic effects ([1]; 36 mg/kg/d) | further results
1 | CCCCCCCC(=O)N[C@H](C(=O)N[C@H](CO)C(=O)N[C@H]1CCNC(=O)[C@H]([C@@H](C)O)NC(=O)[C@H](CCN)NC(=O)[C@H](CCN)NC(=O)[C@H](CC(C)C)NC(=O)[C@@H](Cc2ccccc2)NC(=O)[C@H](CCN)NC1=O)[C@@H](C)O [NAB739, octanoyl -Thr - DSer-[cyclo-α,γDab - αDab - DPhe- Leu - αDab -αDab - Thr]] (Octanoyl-T[dS][Dab][Dab][dF]L[Dab][Dab]T; lactam 3-C) | 32 µg/mL | 1 µg/mL | 128 µg/mL | 2 µg/mL | 2 to 4 µg/mL | 0.5 µg/mL | 2 to 4 µg/mL | 1 µg/mL | 4 µg/mL | 4 µg/mL | 2 µg/mL | 4 to 8 µg/mL | 4 µg/mL | 2 µg/mL | 4 µg/mL | 0.5 µg/mL | 128 µg/mL | 2 µg/mL | one animal receiving NAB739 displayed marked increase in S-Crea | One animal | MIC (E. coli JMI 3328): 1 µg/mL; MIC (K. pneumoniae ATCC 43816): 1 to 2 µg/mL; MIC (E. coli ATCC 25922): 1 µg/mL; urinary recoveries (0-8 h urine collection) ([2]; day 1, per animal): 20.4% and 26.4%; urine concentrations (in 0-8 h urine collection) ([2]; day 1, per animal): 92 µg/mL and 33 µg/mL and 82 µg/mL; urinary recoveries (0-8 h urine collection) ([2]; day 7, per animal): 30.6% and 55.8%; urine concentrations (in 0-8 h urine collection) ([2]; day 7, per animal): 268 µg/mL and 348 µg/mL; concentration in the urine [2]: 80 µg/mL and 140 µg/mL and 155 µg/mL; 0-8 h recovery in urine [2]: up to 20 % of the dose and ≤ 91 % of the dose and ≤ 92 % of the dose
2 | CCCCCCCC(=O)N[C@@H](CCN)C(=O)N[C@H](C(=O)N[C@@H](C(=O)N[C@H]1CCNC(=O)[C@H]([C@@H](C)O)NC(=O)[C@H](CCN)NC(=O)[C@H](CC)NC(=O)[C@H](CC(C)C)NC(=O)[C@@H](Cc2ccccc2)NC(=O)[C@H](CCN)NC1=O)[C@H](C)O)[C@@H](C)O [NAB815, octanoyl - αDab -Thr - DThr-[cyclo-α,yDab - αDab - DPhe- Leu -Abu -αDab - Thr]] (Octanoyl-[Dab]T[dT][Dab][Dab][dF]L[Abu][Dab]T; lactam 4-C) | 128 µg/mL | 1 µg/mL | 256 µg/mL | 2 µg/mL | 2 µg/mL | 0.5 to 2 µg/mL | 2 to 4 µg/mL | 1 to 2 µg/mL | 8 µg/mL | 4 µg/mL | 4 µg/mL | >8 µg/mL | 2 to 4 µg/mL | 2 µg/mL | 4 µg/mL | 0.5 to 2 µg/mL | 128 µg/mL | 4 µg/mL | None of the parameters was elevated | underwent no prescheduled necropsy | MIC (E. coli JMI 3328; [4]): 1 µg/mL; MIC (P. aeruginosa ATCC 27853; [3]): 16 µg/mL; MIC (K. pneumoniae ATCC 43816; [4]): 1 µg/mL; MIC (E. coli ATCC 25922; [4]): 1 µg/mL; kidney injury markers (S-BUN, S-Crea, U-NAG/Crea, U-GGT/Crea) ([1]; 36 mg/kg/d): only minor if any elevations in the four parameters; kidney histopathology findings (nephropathological parameters) ([1]; 36 mg/kg/d, H&E kidney sections, five parameters graded 0 no significant findings, 1 minimal, 2 mild, 3 moderate, 4 marked): moderate findings, both in one parameter only; also recorded: no other than minimal or mild findings; urinary recoveries (0-8 h urine collection) ([2]; day 1, per animal): 14.3% and 20.9% and 36.3%; urine concentrations (in 0-8 h urine collection) ([2]; day 1, per animal): 173 µg/mL and 265 µg/mL and 114 µg/mL; urinary recoveries (0-8 h urine collection) ([2]; day 7, per animal): 40.5% and 41.9%; urine concentrations (in 0-8 h urine collection) ([2]; day 7, per animal): 17 µg/mL and 62 µg/mL and 149 µg/mL; concentration in the urine [2]: 175 µg/mL and 225 µg/mL and 260 µg/mL; 0-8 h recovery in urine [2]: up to 38 % of the dose and ≤ 55 % of the dose and ≤ 88 % of the dose
